21 compounds from patent publication US8519149B2, “Tricyclic compounds as mPGES-1 inhibitors” (Glenmark Pharmaceuticals S.A., priority 2010, dated 2013) can be followed below.

This assay has as its target T1, Recombinant human mPGES-1 (Homo sapiens, UniProt O14684).
T1 sequence (O14684 1-152): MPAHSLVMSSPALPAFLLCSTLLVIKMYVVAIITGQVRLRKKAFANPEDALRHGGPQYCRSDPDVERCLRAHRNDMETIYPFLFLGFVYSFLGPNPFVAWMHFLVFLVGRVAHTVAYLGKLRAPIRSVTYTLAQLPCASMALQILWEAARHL
Nature of the assay: In-vitro mPGES-1 enzyme inhibition assay (PGE2 formation from PGH2, HTRF detection). Format: biochemical. The conditions noted are these: for inhibition at 1 µM: 1 μM test compound, read-out: Percentage inhibition at 1 μM; for inhibition at 1 µM / inhibition at 10 µM: recombinant human mPGES-1 microsomal fraction; for inhibition at 10 µM: 10 μM test compound, read-out: Percentage inhibition at 10 μM; for IC50: class symbols, selected examples. The gist of the method:
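Crude microsomal fractions containing recombinant human mPGES-1 (40-60 μg/mL protein) convert PGH2 to PGE2 in the presence of reduced glutathione, with 0.5% final DMSO. Reaction stopped with stannous chloride, and PGE2 measured by anti-PGE2 antibody (HTRF) detection. IC50 by nonlinear regression of % inhibition versus uninhibited enzyme control.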
Background: In TR-FRET formats the signal depends on donor and acceptor labels being close together.

Some results are limits rather than exact numbers.

On to `Cc1cccc(Cl)c1Nc1nc2cc(C(=O)Nc3cc(F)c(F)cc3F)c3c(c2[nH]1)CC(C)(C)O3` [Example-192, 2-((2-Chloro-6-methylphenyl)amino)-7,7-dimethyl-N-(2,4,5-trifluorophenyl)-7,8-dihydro-1H-benzofuro[4,5-d]imidazole-5-carboxamide], for which the inhibition at 1 µM stood at 97.1%, the inhibition at 10 µM is 96.5% and the IC50 was below 50 nM.
For `CC1(C)Cc2c(c(C(=O)Nc3cc(F)c(F)cc3F)cc3nc(Nc4c(F)cccc4Cl)[nH]c23)O1` [Example-193, 2-((2-Chloro-6-fluorophenyl)amino)-7,7-dimethyl-N-(2,4,5-trifluorophenyl)-7,8-dihydro-1H-benzofuro[4,5-d]imidazole-5-carboxamide] the same measures were 96.4%, 94.7% and below 50 nM.
For `CC1(C)Cc2c(c(C(=O)Nc3ccc(C(F)(F)F)cc3F)cc3nc(Nc4c(Cl)cncc4Cl)[nH]c23)O1` [Example-194, 2-((3,5-Dichloropyridin-4-yl)amino)-N-(2-fluoro-4-(trifluoromethyl)phenyl)-7,7-dimethyl-7,8-dihydro-1H-benzofuro[4,5-d]imidazole-5-carboxamide], the inhibition at 1 µM was found to be 99.2% and the inhibition at 10 µM was found to be 100%.
Consider `CC1(C)Cc2c(c(C(=O)Nc3cc(C(F)(F)F)ccc3F)cc3nc(Nc4c(Cl)cncc4Cl)[nH]c23)O1` [Example-195, 2-((3,5-Dichloropyridin-4-yl)amino)-N-(2-fluoro-5-(trifluoromethyl)phenyl)-7,7-dimethyl-7,8-dihydro-1H-benzofuro[4,5-d]imidazole-5-carboxamide], for which the inhibition at 1 µM came to 98.8%, the inhibition at 10 µM stood at 99% and the IC50 was below 50 nM.
As for `CC1(C)Cc2c(c(C(=O)Nc3ccc(F)c(C(F)(F)F)c3)cc3nc(Nc4c(Cl)cncc4Cl)[nH]c23)O1` [Example-196, 2-((3,5-Dichloropyridin-4-yl)amino)-N-(4-fluoro-3-(trifluoromethyl)phenyl)-7,7-dimethyl-7,8-dihydro-1H-benzofuro[4,5-d]imidazole-5-carboxamide], the inhibition at 1 µM came out at 100% and the inhibition at 10 µM stood at 98.8%.
As to `CC1(C)Cc2c(c(C(=O)Nc3ccc(F)cc3F)cc3nc(Nc4c(Cl)cncc4Cl)[nH]c23)O1` [Example-197, 2-((3,5-Dichloropyridin-4-yl)amino)-N-(2,4-difluorophenyl)-7,7-dimethyl-7,8-dihydro-1H-benzofuro[4,5-d]imidazole-5-carboxamide], the inhibition at 1 µM amounted to 99.6%, the inhibition at 10 µM worked out at 99.5% and the 50% inhibitory concentration (IC50) is below 50 nM.
As for `Cc1ccc(NC(=O)c2cc3nc(Nc4c(Cl)cncc4Cl)[nH]c3c3c2OC(C)(C)C3)c(Cl)c1` [Example-198, N-(2-Chloro-4-methylphenyl)-2-((3,5-dichloropyridin-4-yl)amino)-7,7-dimethyl-7,8-dihydro-1H-benzofuro[4,5-d]imidazole-5-carboxamide], the inhibition at 1 µM stood at 98.7%, the inhibition at 10 µM worked out at 99.7% and the 50% inhibitory concentration (IC50) is below 50 nM.
For `CC1(C)Cc2c(c(C(=O)Nc3cc(F)c(F)cc3F)cc3nc(Nc4c(Cl)cncc4Cl)[nH]c23)O1` [Example-199, 2-((3,5-Dichloropyridin-4-yl)amino)-7,7-dimethyl-N-(2,4,5-trifluorophenyl)-7,8-dihydro-1H-benzofuro[4,5-d]imidazole-5-carboxamide] the same measures were 99.4%, 100% and below 50 nM.
Turning to `Cc1cccc(Cl)c1Nc1nc2cc(C(=O)Nc3ccc(F)c(F)c3F)c3c(c2[nH]1)CC(C)(C)O3` [Example-202, 2-((2-Chloro-6-methylphenyl)amino)-7,7-dimethyl-N-(2,3,4-trifluorophenyl)-7,8-dihydro-1H-benzofuro[4,5-d]imidazole-5-carboxamide], the inhibition at 1 µM stood at 95.1%, the inhibition at 10 µM worked out at 100% and the IC50 is below 50 nM.
In the same order, the values of `CC1(C)Cc2c(c(C(=O)Nc3cc(C4CC4)ccc3F)cc3nc(Nc4c(Cl)cncc4Cl)[nH]c23)O1` [Example-203, N-(5-Cyclopropyl-2-fluorophenyl)-2-((3,5-dichloropyridin-4-yl)amino)-7,7-dimethyl-7,8-dihydro-1H-benzofuro[4,5-d]imidazole-5-carboxamide] are 100%, 94.8% and below 50 nM.
Turning to `Cc1cccc(Cl)c1Nc1nc2cc(C(=O)Nc3ncc(Cl)cc3F)c3c(c2[nH]1)CC(C)(C)O3` [Example-204, N-(5-Chloro-3-fluoropyridin-2-yl)-2-((2-chloro-6-methylphenyl)amino)-7,7-dimethyl-7,8-dihydro-1H-benzofuro[4,5-d]imidazole-5-carboxamide], the inhibition at 1 µM came out at 98%, the inhibition at 10 µM worked out at 100% and the 50% inhibitory concentration (IC50) was below 50 nM.
Turning to `CC1(C)Cc2c(c(C(=O)Nc3ncc(Cl)cc3F)cc3nc(Nc4c(Cl)cccc4Cl)[nH]c23)O1` [Example-205, N-(5-Chloro-3-fluoropyridin-2-yl)-2-((2,6-dichlorophenyl)amino)-7,7-dimethyl-7,8-dihydro-1H-benzofuro[4,5-d]imidazole-5-carboxamide], the inhibition at 1 µM turned out to be 99.9%, the inhibition at 10 µM amounted to 100% and the IC50 is below 50 nM.
For `CC1(C)Cc2c(c(C(=O)Nc3ccc(F)c(F)c3F)cc3nc(Nc4c(Cl)cncc4Cl)[nH]c23)O1` [Example-212, 2-((3,5-Dichloropyridin-4-yl)amino)-7,7-dimethyl-N-(2,3,4-trifluorophenyl)-7,8-dihydro-1H-benzofuro[4,5-d]imidazole-5-carboxamide] the same measures were 95.1%, 98.8% and below 50 nM.
`Cn1c(Nc2c(Cl)cncc2Cl)nc2cc(C(=O)Nc3ccc(F)c(C(F)(F)F)c3)c3c(c21)CC(C)(C)O3` [Example-213, 2-((3,5-Dichloropyridin-4-yl)amino)-N-(4-fluoro-3-(trifluoromethyl)phenyl)-1,7,7-trimethyl-7,8-dihydro-1H-benzofuro[4,5-d]imidazole-5-carboxamide]: the inhibition at 1 µM stood at 96.3% and the inhibition at 10 µM was determined as 97.3%.
For `Cn1c(Nc2c(Cl)cncc2Cl)nc2cc(C(=O)Nc3cccc(C(F)(F)F)c3)c3c(c21)CC(C)(C)O3` [Example-214, 2-((3,5-Dichloropyridin-4-yl)amino)-1,7,7-trimethyl-N-(3-(trifluoromethyl)phenyl)-7,8-dihydro-1H-benzofuro[4,5-d]imidazole-5-carboxamide] the same measures were 98.4% and 96.5%.
For `Cn1c(Nc2c(Cl)cncc2Cl)nc2cc(C(=O)Nc3ccc(C(F)(F)F)cc3)c3c(c21)CC(C)(C)O3` [Example-215, 2-((3,5-dichloropyridin-4-yl)amino)-1,7,7-trimethyl-N-(4-(trifluoromethyl)phenyl)-7,8-dihydro-1H-benzofuro[4,5-d]imidazole-5-carboxamide] the same measures were 96.3% and 94.1%.
In the same order, the values of `Cn1c(Nc2c(Cl)cncc2Cl)nc2cc(C(=O)Nc3ccc(C4CC4)cc3)c3c(c21)CC(C)(C)O3` [Example-216, N-(4-Cyclopropylphenyl)-2-((3,5-dichloropyridin-4-yl)amino)-1,7,7-trimethyl-7,8-dihydro-1H-benzofuro[4,5-d]imidazole-5-carboxamide] are 96.5% and 96.4%.
For the compound `Cn1c(Nc2c(Cl)cncc2Cl)nc2cc(C(=O)Nc3cc(C4CC4)ccc3F)c3c(c21)CC(C)(C)O3` [Example-217, N-(5-Cyclopropyl-2-fluorophenyl)-2-((3,5-dichloropyridin-4-yl)amino)-1,7,7-trimethyl-7,8-dihydro-1H-benzofuro[4,5-d]imidazole-5-carboxamide], the inhibition at 1 µM is 96.2% and the inhibition at 10 µM is 99.9%.
In the same order, the values of `Cn1c(Nc2c(Cl)cncc2Cl)nc2cc(C(=O)Nc3cc(C(F)(F)F)ccc3F)c3c(c21)CC(C)(C)O3` [Example-218, 2-((3,5-Dichloropyridin-4-yl)amino)-N-(2-fluoro-5-(trifluoromethyl)phenyl)-1,7,7-trimethyl-7,8-dihydro-1H-benzofuro[4,5-d]imidazole-5-carboxamide] are 99.4% and 100%.
For `Cn1c(Nc2c(Cl)cncc2Cl)nc2cc(C(=O)Nc3ccc(C(F)(F)F)cn3)c3c(c21)CC(C)(C)O3` [Example-219, 2-((3,5-Dichloropyridin-4-yl)amino)-1,7,7-trimethyl-N-(5-(trifluoromethyl)pyridin-2-yl)-7,8-dihydro-1H-benzofuro[4,5-d]imidazole-5-carboxamide] the same measures were 97.8% and 98.5%.
Consider `Cn1c(Nc2c(Cl)cncc2Cl)nc2cc(C(=O)NCC3CC3)c3c(c21)CC(C)(C)O3` [Example-220, N-(Cyclopropylmethyl)-2-((3,5-dichloropyridin-4-yl)amino)-1,7,7-trimethyl-7,8-dihydro-1H-benzofuro[4,5-d]imidazole-5-carboxamide], for which the inhibition at 1 µM is 81.5% and the inhibition at 10 µM turned out to be 99.8%.

As a reminder, the inhibition is the change of the read-out against control, counted positive when it falls. One may read the IC50 as the midpoint of a concentration-inhibition curve.
